Results published in US7566712B2, “Biaryl piperazinyl-pyridine analogues” (Neurogen Corporation, priority 2003, dated 2009).

Target: T1, human capsaicin receptor (Homo sapiens, UniProt Q8NER1)
T1 construct: pBK-CMV expression construct encoding the full length human capsaicin receptor; expressed in transfected cells
Test: Calcium mobilization assay, determination of antagonist activity (Example 6)
Assay type: cell-based
Conditions: Table II; IC50 determined as described in Example 6
Outline: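 HEK293 clonal lines stably expressing full-length human capsaicin receptor, loaded with Fluo-3 AM in KRH buffer pH 7.4, 1–2 h at 37 °C. Compounds (1–5 μM final) preincubated 0.5–6 h at room temperature, then capsaicin at its EC50 added. FLIPR/Fluoroskan calcium signal; IC50 as 50% decrease of capsaicin response.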

T1 sequence (Q8NER1 whole entry): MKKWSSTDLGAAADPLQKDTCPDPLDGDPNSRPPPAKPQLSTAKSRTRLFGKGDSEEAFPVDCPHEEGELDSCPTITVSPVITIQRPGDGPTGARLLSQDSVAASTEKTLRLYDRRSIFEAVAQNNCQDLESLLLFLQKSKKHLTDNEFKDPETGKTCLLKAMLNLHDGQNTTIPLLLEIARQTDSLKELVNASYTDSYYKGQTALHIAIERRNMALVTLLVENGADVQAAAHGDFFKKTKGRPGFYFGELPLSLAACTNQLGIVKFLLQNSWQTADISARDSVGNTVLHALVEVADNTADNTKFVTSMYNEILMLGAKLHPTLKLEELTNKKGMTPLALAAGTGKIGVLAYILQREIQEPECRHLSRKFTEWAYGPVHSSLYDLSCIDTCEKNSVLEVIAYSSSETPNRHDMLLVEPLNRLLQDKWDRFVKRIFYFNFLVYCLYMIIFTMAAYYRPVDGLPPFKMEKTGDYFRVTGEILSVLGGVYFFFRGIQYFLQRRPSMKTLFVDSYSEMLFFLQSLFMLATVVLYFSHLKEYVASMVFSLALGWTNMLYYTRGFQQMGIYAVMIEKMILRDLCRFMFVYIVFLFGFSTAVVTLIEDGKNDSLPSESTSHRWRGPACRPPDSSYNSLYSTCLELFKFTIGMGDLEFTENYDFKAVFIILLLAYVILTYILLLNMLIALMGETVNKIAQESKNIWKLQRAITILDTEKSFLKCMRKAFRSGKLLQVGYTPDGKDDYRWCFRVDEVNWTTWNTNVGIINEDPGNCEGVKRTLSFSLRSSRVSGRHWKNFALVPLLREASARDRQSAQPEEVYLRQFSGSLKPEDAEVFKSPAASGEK

IC50, ≤ 1000 nM:
Cc1ccc(-c2cc(N3CCN(c4ncccc4C(F)(F)F)C[C@H]3C)nc(N3CCOCC3)n2)cc1F [Example 495, 4-(4-(3-fluoro-4-methylphenyl)-6-{(2R)-2-methyl-4-[3-(trifluoromethyl)pyridin-2-yl]piperazin-1-yl}pyrimidin-2-yl)morpholine]
Cc1ccc(-c2cc(N3CCN(c4ncccc4Cl)C[C@H]3C)nc(N3CCOCC3)n2)cc1F [Example 496, 4-[4-[(2R)-4-(3-chloropyridin-2-yl)-2-methylpiperazin-1-yl]-6-(3-fluoro-4-methylphenyl)pyrimidin-2-yl]morpholine]
Cc1cc(-c2cc(N3CCN(c4ncccc4C(F)(F)F)C[C@H]3C)nc(N3CCOCC3)n2)ccc1F [Example 497, 4-(4-(4-fluoro-3-methylphenyl)-6-{(2R)-2-methyl-4-[3-(trifluoromethyl)pyridin-2-yl]piperazin-1-yl}pyrimidin-2-yl)morpholine]
Cc1cc(-c2cc(N3CCN(c4ncccc4Cl)C[C@H]3C)nc(N3CCOCC3)n2)ccc1F [Example 498, 4-[4-[(2R)-4-(3-chloropyridin-2-yl)-2-methylpiperazin-1-yl]-6-(4-fluoro-3-methytphenyl)pyrimidin-2-yl]morpholine]
CC(C)c1cccc(-c2cc(N3CCN(c4ncccc4C#N)C[C@H]3C)nc(N3CCOCC3)n2)c1 [Example 499, 2-{(3R)-4-[6-(3-isopropylphenyl)-2-morpholin-4-ylpyrimidin-4-yl]-3-methylpiperazin-1-yl}nicotinonitrile]
Cc1cccnc1N1CCN(c2cc(-c3cccc(C(C)C)c3)nc(N3CCOCC3)n2)[C@H](C)C1 [Example 500, 4-{4-(3-isopropylphenyl)-6-[(2R)-2-methyl-4-(3-methylpyridin-2-yl)piperazin-1-yl]pyrimidin-2-yl}morpholine]
CC(C)c1cccc(-c2cc(N3CCN(c4ncccc4C(F)(F)F)C[C@H]3C)nc(N3CCOCC3)n2)c1 [Example 501, 4-(4-(3-isopropylphenyl)-6-{(2R)-2-methyl-4-[3-(trifluoromethyl)pyridin-2-yl]piperazin-1-yl}pyrimidin-2-yl)morpholine]
CC(C)c1cccc(-c2cc(N3CCN(c4ncccc4Cl)C[C@H]3C)nc(N3CCOCC3)n2)c1 [Example 502, 4-[4-[(2R)-4-(3-chloropyridin-2-yl)-2-methylpiperazin-1-yl]-6-(3-isopropylphenyl)pyrimidin-2-yl]morpholine]
CC(C)c1ccc(-c2cc(N3CCN(c4ncccc4C#N)C[C@H]3C)nc(N3CCOCC3)n2)cc1 [Example 503, 2-{(3R)-4-[6-(4-isopropylphenyl)-2-morpholin-4-ylpyrimidin-4-yl]-3-methylpiperazin-1-yl}nicotinonitrile]
Cc1cccnc1N1CCN(c2cc(-c3ccc(C(C)C)cc3)nc(N3CCOCC3)n2)[C@H](C)C1 [Example 504, 4-{4-(4-isopropylphenyl)-6-[(2R)-2-methyl-4-(3-methylpyridin-2-yl)piperazin-1-yl]pyrimidin-2-yl}morpholine]
CC(C)c1ccc(-c2cc(N3CCN(c4ncccc4Cl)C[C@H]3C)nc(N3CCOCC3)n2)cc1 [Example 505, 4-[4-[(2R)-4-(3-chloropyridin-2-yl)-2-methylpiperazin-1-yl]-6-(4-isopropylphenyl)pyrimidin-2-yl]morpholine]
Cc1ccc(-c2cc(N3CCN(c4ncccc4C#N)C[C@H]3C)nc(N3CCOCC3)n2)cc1C [Example 506, 2-{(3R)-4-[6-(3,4-dimethylphenyl)-2-morpholin-4-ylpyrimidin-4-yl]-3-methylpiperazin-1-yl}nicotinonitrile]
Cc1ccc(-c2cc(N3CCN(c4ncccc4C)C[C@H]3C)nc(N3CCOCC3)n2)cc1C [Example 507, 4-[4-(3,4-dimethylphenyl)-6-[(2R)-2-methyl-4-(3-methylpyridin-2-yl)piperazin-1-yl]pyrimidin-2-yl}morpholine]
Cc1ccc(-c2cc(N3CCN(c4ncccc4Cl)C[C@H]3C)nc(N3CCOCC3)n2)cc1C [Example 508, 4-[4-[(2R)-4-(3-chloropyridin-2-yl)-2-methylpiperazin-1-yl]-6-(3,4-dimethylphenyl)pyrimidin-2-yl]morpholine]
CCc1ccc(-c2cc(N3CCN(c4ncccc4C#N)C[C@H]3C)nc(N3CCOCC3)n2)cc1 [Example 509, 2-{(3R)-4-[6-(4-ethylphenyl)-2-morpholin-4-ylpyrimidin-4-yl]-3-methylpiperazin-1-yl}nicotinonitrile]
CCc1ccc(-c2cc(N3CCN(c4ncccc4C)C[C@H]3C)nc(N3CCOCC3)n2)cc1 [Example 510, 4-{4-(4-ethylphenyl)-6-[(2R)-2-methyl-4-(3-methylpyridin-2-yl)piperazin-1-yl]pyrimidin-2-yl}morpholine]
CCc1ccc(-c2cc(N3CCN(c4ncccc4Cl)C[C@H]3C)nc(N3CCOCC3)n2)cc1 [Example 511, 4-[4-[(2R)-4-(3-chloropyridin-2-yl)-2-methylpiperazin-1-yl]-6-(4-ethylphenyl)pyrimidin-2-yl]morpholine]
CCCc1ccc(-c2cc(N3CCN(c4ncccc4C#N)C[C@H]3C)nc(N3CCOCC3)n2)cc1 [Example 512, 2-{(3R)-3-methyl-4-[2-morpholin-4-yl-6-(4-propylphenyl)pyrimidin-4-yl]piperazin-1-yl}nicotinonitrile]
CCCc1ccc(-c2cc(N3CCN(c4ncccc4Cl)C[C@H]3C)nc(N3CCOCC3)n2)cc1 [Example 513, 4-[4-[(2R)-4-(3-chloropyridin-2-yl)-2-methylpiperazin-1-yl]-6-(4-propylphenyl)pyrimidin-2-yl]morpholine]
CCc1cccc(-c2cc(N3CCN(c4ncccc4C#N)C[C@H]3C)nc(N3CCOCC3)n2)c1 [Example 514, 2-{(3R)-4-[6-(3-ethylphenyl)-2-morpholin-4-ylpyrimidin-4-yl]-3-methylpiperazin-1-yl}nicotinonitrile]
CCc1cccc(-c2cc(N3CCN(c4ncccc4C)C[C@H]3C)nc(N3CCOCC3)n2)c1 [Example 515, 4-{4-(3-ethylphenyl)-6-[(2R)-2-methyl-4-(3-methylpyridin-2-yl)piperazin-1-yl]pyrimidin-2-yl}morpholine]
CCc1cccc(-c2cc(N3CCN(c4ncccc4C(F)(F)F)C[C@H]3C)nc(N3CCOCC3)n2)c1 [Example 516, 4-(4-(3-ethylphenyl)-6-{(2R)-2-methyl-4-[3-(trifluoromethyl)pyridin-2-yl]piperazin-1-yl}pyrimidin-2-yl)morpholine]
CCc1cccc(-c2cc(N3CCN(c4ncccc4Cl)C[C@H]3C)nc(N3CCOCC3)n2)c1 [Example 517, 4-[4-[(2R)-4-(3-chloropyridin-2-yl)-2-methylpiperazin-1-yl]-6-(3-ethylphenyl)pyrimidin-2-yl]morpholine]
C[C@@H]1CN(c2ncccc2C#N)CCN1c1cc(-c2ccc(C(C)(C)C)cc2)nc(N2CCOCC2)n1 [Example 518, 2-{(3R)-4-[6-(4-tert-butylphenyl)-2-morpholin-4-ylpyrimidin-4-yl]-3-methylpiperazin-1-yl}nicotinonitrile]
C[C@@H]1CN(c2ncccc2C(F)(F)F)CCN1c1cc(-c2ccc(C(C)(C)C)cc2)nc(N2CCOCC2)n1 [Example 519, 4-(4-(4-tert-butylphenyl)-6-{(2R)-2-methyl-4-[3-(trifluoromethyl)pyridin-2-yl]piperazin-1-yl}pyrimidin-2-yl)morpholine]
C[C@@H]1CN(c2ncccc2Cl)CCN1c1cc(-c2ccc(C(C)(C)C)cc2)nc(N2CCOCC2)n1 [Example 520, 4-{4-(4-tert-butylphenyl)-6-[(2R)-4-(3-chloropyridin-2-yl)-2-methylpiperazin-1-yl]pyrimidin-2-yl}morpholine]
Cc1cccnc1N1CCN(c2cc(-c3cccc4ccccc34)nc(N3CCOCC3)n2)[C@H](C)C1 [Example 521, 4-[4-[(2R)-2-methyl-4-(3-methylpyridin-2-yl)piperazin-1-yl]-6-(1-naphthyl)pyrimidin-2-yl]morpholine]
Cc1cccnc1N1CCN(c2cc(-c3ccc(C)c4ccccc34)nc(N3CCOCC3)n2)[C@H](C)C1 [Example 522, 4-[4-[(2R)-2-methyl-4-(3-methylpyridin-2-yl)piperazin-1-yl]-6-(4-methyl-1-naphthyl)pyrimidin-2-yl]morpholine]
COc1cccc(-c2cc(N3CCN(c4ncccc4C#N)C[C@H]3C)nc(N3CCOCC3)n2)c1 [Example 523, 2-{(3R)-4-[6-(3-methoxyphenyl)-2-morpholin-4-ylpyrimidin-4-yl]-3-methylpiperazin-1-yl}nicotinonitrile]
COc1cccc(-c2cc(N3CCN(c4ncccc4C)C[C@H]3C)nc(N3CCOCC3)n2)c1 [Example 524, 4-{4-(3-methoxyphenyl)-6-[(2R)-2-methyl-4-(3-methylpyridin-2-yl)piperazin-1-yl]pyrimidin-2-yl}morpholine]
COc1cccc(-c2cc(N3CCN(c4ncccc4C(F)(F)F)C[C@H]3C)nc(N3CCOCC3)n2)c1 [Example 525, 4-(4-(3-methoxyphenyl)-6-{(2R)-2-methyl-4-[3-(trifluoromethyl)pyridin-2-yl]piperazin-1-yl}pyrimidin-2-yl)morpholine]
COc1cccc(-c2cc(N3CCN(c4ncccc4Cl)C[C@H]3C)nc(N3CCOCC3)n2)c1 [Example 526, 4-[4-[(2R)-4-(3-chloropyridin-2-yl)-2-methylpiperazin-1-yl]-6-(3-methoxyphenyl)pyrimidin-2-yl]morpholine]
